Measured values from patent US20210267978A1, “NANOPARTICLE FORMULATIONS OF IKE AND METHODS OF USE THEREOF” (The Trustees of Columbia University in the City of New York, priority 2018, published 2021).
Where two headings read alike, the source gives them in different places.

Assays:
[1] = Pharmacokinetic analysis in NCG mice bearing SUDHL6 xenografts (plasma and tumor, LC-MS); type: in vivo; conditions: SUDHL6-xenograft NCG mice; for AUC(0-t) / Cmax / Tmax / half-life / concentration at 24 h: mouse; for AUC(0-t) / Cmax / Tmax / half-life / concentration at 24 h / Tlast: single dose 50 mg/kg IP; for concentration at 24 h: read-out: Clast
Procedure: IKE was dissolved in 5% DMSO/95% HBSS at pH 4 to create a 5 mg/mL solution or 3 mg/mL solution. 5% DMSO/95% HBSS at pH 4 was used as vehicle 1. IKE PEG-PLGA nanoparticles and unfunctionalized PEG-PLGA nanoparticles (without IKE) (vehicle 2) prepared with a NanoAssemblr were dialyzed with deionized water overnight, and the water was changed at least twice. Dialyzed IKE-PEG-PLGA nanoparticles and unfunctionalized PEG-PLGA nanoparticles were concentrated by Amicon Ultra-15 Centrifugal Filter Units to create a solution with 80 mg/mL PEG-PLGA nanoparticles. All above solutions were sterilized by filtering through a 0.2 μm syringe filter.
NCG mice 6-weeks of age were injected with 10 million SUDHL-6 cells subcutaneously. Visible tumors appeared after 2 weeks. Tumor size was measured by electronic caliper every 2 days and calculated using the formula: 0.5×length×width^2. After another 2 weeks, mice were randomly separated into group of 3 mice per cage with roughly tumor size (1200 mm^3). Mice were dosed at 50 mg/kg IKE, 22 mg/kg IKE, 22 mg/kg IKE PEG-PLGA nanoparticles (equal to 600 mg/kg PEG-PLGA) using IP at one time and samples were collected at 0, 1, 2, 3, 4, 6, and 24 h with three mice per time point. Mice were dosed with Vehicle 1 and Vehicle 2 (600 mg/kg PEG-PLGA) by IP and samples were collected at 24 h. Mice were euthanized using a CO2 gas chamber before xenograft dissection and cardio puncture. Plasma samples were collected and analyzed as described above. Tumors were dissected and divided into 6 segments, frozen on dry ice, and stored at −80° C. Before IKE extraction, tumor tissue samples were thawed at room temperature and weighed. A 2.5-fold ratio of volume of phosphate-buffered saline (PBS) (mL/g) was added to the sample and homogenized using Bead Ruptor 4 at speed 4 for 30 sec. The homogenization step was repeated until the samples were homogenized well (final weight/volume was 0.4 g/mL). 100 μL of homogenized tissue (equal to 40 mg) was added to a new microfuge tube, 900 μL of acetonitrile was added. The samples were mixed for at least 5 minutes by rotating on a shaker and were sonicated for at least 30 sec prior to centrifugation for 10 min at 4,000×g and 4° C. The supernatant was removed and dried on the GeneVac overnight on the HPLC setting. After drying, the samples were resuspended in 100 μL of methanol and analyzed on the LC-MS with each sample analyzed twice. Technical replicates were averaged. The concentration of IKE in the sample was determined by comparison against a standard curve of IKE in the range of 25 to 2,500 ng/mL. Pharmacodynamic analysis of ferroptosis biomarkers is described in the RT-qPCR, glutathione, immunofluorescence, and lipidomics sections below. Pharmacokinetics parameters of IKE were assessed using Prism fitted with Lognormal of one phase exponential decay.

[2] = tested on: SUDHL6 xenograft tumor tissue; test: qPCR in mouse tumor tissue after one IKE dose; type: in vivo, NCG mice; conditions: single dose IKE 50 mg/kg, starting at 3 h
Procedure: NCG mice 6-weeks of age were injected with 10 million SUDHL-6 cells subcutaneously. Visible tumors appeared after 2 weeks. Tumor size was measured by electronic caliper every 2 days and calculated using the formula: 0.5×length×width^2. After another 2 weeks, mice were randomly separated into group of 3 mice per cage with roughly tumor size (1200 mm^3). Mice were dosed at 50 mg/kg IKE, 22 mg/kg IKE, 22 mg/kg IKE PEG-PLGA nanoparticles (equal to 600 mg/kg PEG-PLGA) using IP at one time and samples were collected at 0, 1, 2, 3, 4, 6, and 24 h with three mice per time point. Mice were dosed with Vehicle 1 and Vehicle 2 (600 mg/kg PEG-PLGA) by IP and samples were collected at 24 h. […] Plasma samples were collected and analyzed as described above. […] After drying, the samples were resuspended in 100 μL of methanol and analyzed on the LC-MS with each sample analyzed twice. […] The concentration of IKE in the sample was determined by comparison against a standard curve of IKE in the range of 25 to 2,500 ng/mL. […] Pharmacokinetics parameters of IKE were assessed using Prism fitted with Lognormal of one phase exponential decay. […]
To perform qPCR analysis in mouse tumor tissue, ˜20 mg of tumor tissue was prepared and kept on dry ice. […] RNA was reverse transcribed to cDNA then used in quantitative PCR experiment following the same steps used in cell qPCR experiment.

[3] = tested on: SUDHL6 xenograft tumor tissue; test: Western blot of caspase-3 in tumor tissue from efficacy study; type: in vivo, NCG mice; conditions: treatment for 14 days
Procedure: 10-25 mg tumor tissue was placed into a 1.5 mL Eppendorf microfuge tube, and the sample was placed on dry ice until use. 20 μL/mg ice cold RIPA buffer with cocktail protease inhibitor (Roche) was added. The tumor tissue was homogenized at speed 5 for 30 sec using Bead Ruptor 4. The sample was centrifuged at 4° C. at 1,600×g for 10 min. The sample was kept on ice and the supernatant used for analysis. Caspase-3 antibody which could recognize both full-length caspase-3 and cleaved caspase-3 was used. α-Tubulin antibody was used as the reference.

highest plasma concentration ([1]; single dose 50 mg/kg i.p.): 5.2 µg/mL
highest tumor accumulation ([1]; single dose 50 mg/kg i.p.): 2.5 µg/mL
AUC(0-t) ([1]; plasma): 10900 ng·h/mL
Cmax ([1]; plasma): 5180 ng/mL
Tmax ([1]; plasma): 1.35 h
half-life ([1]; plasma): 1.83 h
concentration at 24 h ([1]; plasma): 30 ng/mL
AUC(0-t) ([1]; tumor tissue): 9860 ng·h/mL
Cmax ([1]; tumor tissue): 2520 ng/mL
Tmax ([1]; tumor tissue): 3.3 h
half-life ([1]; tumor tissue): 3.5 h
concentration at 24 h ([1]; tumor tissue): 283 ng/mL
Tlast ([1]; plasma): 24 h
Tlast ([1]; tumor tissue): 24 h
Structure (SMILES): CC(C)Oc1ccc(C(=O)Cn2ccnc2)cc1-n1c(CN2CCN(C(=O)COc3ccc(Cl)cc3)CC2)nc2ccccc2c1=O [IKE, Imidazole ketone erastin]
CHAC1 mRNA upregulation in tumor [2]: 2 fold
cleaved-caspase 3 in tumor tissue (western blot) [3]: no cleaved-caspase 3 increase
